# In US20260130933A1, “PHARMACEUTICAL COMPOSITION FOR PREVENTION OR TREATMENT OF NEPHROPATHY AND/OR DIABETES MELLITUS, COMPRISING ENAVOGLIFLOZIN” (DAEWOONG PHARMACEUTICAL CO., LTD., priority 2022, published 2026):
# Assay: Example 2: phase 3 trial, enavogliflozin 0.3 mg vs dapagliflozin 10 mg once a day for 24 weeks added to metformin in patients with type 2 diabetes (same efficacy, exploratory and safety endpoints)
# Assay type: in vivo, human
# Conditions: for HDL-C change from baseline, ANCOVA LS mean (SE) / HDL-C change from baseline, Mean (SD) / HDL-C change from baseline, Median / HDL-C, Mean (SD) / HDL-C, Median / LDL-C change from baseline, ANCOVA LS mean (SE) / LDL-C change from baseline, Mean (SD) / LDL-C change from baseline, Median / LDL-C, Mean (SD) / LDL-C, Median / Triglycerides change from baseline, ANCOVA LS mean (SE) / Triglycerides change from baseline, Mean (SD) / Triglycerides change from baseline, Median / Triglycerides, Mean (SD) / Triglycerides, Median: mPPS1; for Diastolic blood pressure change from baseline, ANCOVA LS mean (SE) / Diastolic blood pressure change from baseline, Mean (SD) / Diastolic blood pressure change from baseline, Median / Diastolic blood pressure, Mean (SD) / Diastolic blood pressure, Median / Systolic blood pressure change from baseline, ANCOVA LS mean (SE) / Systolic blood pressure change from baseline, Mean (SD) / Systolic blood pressure change from baseline, Median / Systolic blood pressure, Mean (SD) / Systolic blood pressure, Median: mPPS2
# Method: Subjects who met the inclusion/exclusion criteria were administered a placebo of the clinical trial drug under single-blind (subject blinding) conditions during a 2-week run-in period while continuing to receive metformin. […] The randomized subjects were administered two tablets of the clinical trial drug for each administration group once a day, and then visited the institution at weeks 6, 12, 18, and 24 during the 24-week administration period to conduct efficacy and safety evaluations.
# • 1. Change in HbA1c at week 24 after administration of clinical trial drug compared to Visit 2 (randomization)
# • 1. Change in HbA1c at each time point of weeks 6, 12, and 18 after administration of clinical trial drug compared to Visit 2 (randomization) • 2. Change in FPG at each time point of weeks 6, 12, 18, and 24 after administration of clinical trial drug compared to Visit 2 (randomization) • 3. Proportion of subjects achieving HbA1c<7% at each time point of weeks 6, 12, 18, and 24 after administration of clinical trial drug • 4. Proportion of subjects achieving HbA1c<6.5% at each time point of weeks 6, 12, 18, and 24 after administration of clinical trial drug • 5. Proportion of subjects achieving therapeutic response (HbA1c change (HbA1c at Visit 2-HbA1c at each evaluation time point)>0.5% or HbA1c<7% at each evaluation time point compared to Visit 2 (randomization)) at each time point of weeks 6, 12, 18 and 24 after administration of clinical trial drug
# • 1. Change in fasting c-peptide at each time point of weeks 6, 12, 18, and 24 after administration of clinical trial drug compared to Visit 2 (randomization) • 2. Change in body weight at each time point of weeks 6, 12, 18, and 24 after administration of clinical trial drug compared to Visit 2 (randomization) • 3. Change in fasting lipid concentration (total cholesterol, LDL-C, HDL-C, and triglycerides) at each time point of weeks 6, 12, 18, and 24 after administration of clinical trial drug compared to Visit 2 (randomization) • 4. Changes in systolic or diastolic blood pressure at each time point of weeks 6, 12, 18, and 24 after administration of clinical trial drug compared to Visit 2 (randomization) • 5. Changes in β-cell function and insulin resistance measured by HOMA-β and HOMA-IR at each time point of weeks 6, 12, 18, and 24 after administration of clinical trial drug compared to Visit 2 (randomization) • 6. Changes in renal function-related indicators (UACR, UGCR) measured by UACR at each time point of weeks 6, 12, 18, and 24 after administration of clinical trial drug compared to Visit 2 (randomization) • 7. Changes in obesity-related indicators (adiponectin, leptin) at each time point of weeks 6, 12, 18, and 24 after administration of clinical trial drug compared to Visit 2 (randomization)
smiles,measurement,setting,value
"CCOc1ccc(Cc2cc([C@@H]3O[C@H](CO)[C@@H](O)[C@H](O)[C@H]3O)ccc2Cl)cc1 [Dapagliflozin, reference compound]","Leptin change from baseline, ANCOVA LS mean (SE)","Week 12, PPS",-2.70 ng/mL
same,"Leptin change from baseline, Mean (SD)","Week 12, PPS",-2.70 ng/mL
same,"Leptin change from baseline, Median","Week 12, PPS",-1.94 ng/mL
same,"Leptin, Mean (SD)","Week 12, PPS",9.07 ng/mL
same,"Leptin, Median","Week 12, PPS",6.05 ng/mL
same,"UACR change from baseline, ANCOVA LS mean (SE)","Week 12, PPS",-3.38 g/kg
same,"UACR change from baseline, Mean (SD)","Week 12, PPS",-8380 mg/kg
same,"UACR change from baseline, Median","Week 12, PPS",-1.80 g/kg
same,"UACR, Mean (SD)","Week 12, PPS",49420 mg/kg
same,"UACR, Median","Week 12, PPS",11.95 g/kg
same,"UGCR change from baseline, ANCOVA LS mean (SE)","Week 12, PPS",45.14 mg/mg
same,"UGCR change from baseline, Mean (SD)","Week 12, PPS",43.59 mg/mg
same,"UGCR change from baseline, Median","Week 12, PPS",40.62 mg/mg
same,"UGCR, Mean (SD)","Week 12, PPS",45.57 mg/mg
same,"UGCR, Median","Week 12, PPS",40.89 mg/mg
same,"HDL-C change from baseline, ANCOVA LS mean (SE)",Week 12,2.25(0.62) mg/dL
same,"HDL-C change from baseline, Mean (SD)",Week 12,2.65(5.61) mg/dL
same,"HDL-C change from baseline, Median",Week 12,2.00 mg/dL
same,"HDL-C, Mean (SD)",Week 12,49.29(9.21) mg/dL
same,"HDL-C, Median",Week 12,49.00 mg/dL
same,"LDL-C change from baseline, ANCOVA LS mean (SE)",Week 12,0.56(1.73) mg/dL
same,"LDL-C change from baseline, Mean (SD)",Week 12,1.33(16.02) mg/dL
same,"LDL-C change from baseline, Median",Week 12,2.00 mg/dL
same,"LDL-C, Mean (SD)",Week 12,77.54(25.39) mg/dL
same,"LDL-C, Median",Week 12,77.00 mg/dL
same,"Triglycerides change from baseline, ANCOVA LS mean (SE)",Week 12,−10.10(4.92) mg/dL
same,"Triglycerides change from baseline, Mean (SD)",Week 12,−14.35(70.12) mg/dL
same,"Triglycerides change from baseline, Median",Week 12,-6.00 mg/dL
same,"Triglycerides, Mean (SD)",Week 12,119.06(50.67) mg/dL
same,"Triglycerides, Median",Week 12,104.00 mg/dL
same,"Diastolic blood pressure change from baseline, ANCOVA LS mean (SE)",Week 12,−4.35 mmHg
same,"Diastolic blood pressure change from baseline, Mean (SD)",Week 12,−4.06 mmHg
same,"Diastolic blood pressure change from baseline, Median",Week 12,−3.00 mmHg
same,"Diastolic blood pressure, Mean (SD)",Week 12,71.86 mmHg
same,"Diastolic blood pressure, Median",Week 12,72.00 mmHg
same,"Systolic blood pressure change from baseline, ANCOVA LS mean (SE)",Week 12,−6.12(1.07) mmHg
same,"Systolic blood pressure change from baseline, Mean (SD)",Week 12,−5.86(11.46) mmHg
same,"Systolic blood pressure change from baseline, Median",Week 12,−6.00 mmHg
same,"Systolic blood pressure, Mean (SD)",Week 12,121.46(12.64) mmHg
same,"Systolic blood pressure, Median",Week 12,123.00 mmHg
same,"Adiponectin change from baseline, ANCOVA LS mean (SE)","Week 18, PPS",1.29 µg/mL
same,"Adiponectin change from baseline, Mean (SD)","Week 18, PPS",1.28 µg/mL
same,"Adiponectin change from baseline, Median","Week 18, PPS",0.73 ng/mL
same,"Adiponectin, Mean (SD)","Week 18, PPS",7.98 µg/mL
same,"Adiponectin, Median","Week 18, PPS",7.08 µg/mL
same,"HOMA-IR change from baseline, ANCOVA LS mean (SE)","Week 18, PPS",−1.47
same,"HOMA-IR change from baseline, Mean (SD)","Week 18, PPS",−1.61
same,"HOMA-IR change from baseline, Median","Week 18, PPS",−1.07
same,"HOMA-IR, Mean (SD)","Week 18, PPS",2.28
same,"HOMA-IR, Median","Week 18, PPS",2.07
same,"HOMA-β change from baseline, ANCOVA LS mean (SE)","Week 18, PPS",13.49
same,"HOMA-β change from baseline, Mean (SD)","Week 18, PPS",13.46
same,"HOMA-β change from baseline, Median","Week 18, PPS",9.80
same,"HOMA-β, Mean (SD)","Week 18, PPS",58.55
same,"HOMA-β, Median","Week 18, PPS",51.80
same,"Leptin change from baseline, ANCOVA LS mean (SE)","Week 18, PPS",-1.23 ng/mL
same,"Leptin change from baseline, Mean (SD)","Week 18, PPS",-1.20 ng/mL
same,"Leptin change from baseline, Median","Week 18, PPS",-1.37 ng/mL
same,"Leptin, Mean (SD)","Week 18, PPS",10.72 ng/mL
same,"Leptin, Median","Week 18, PPS",6.16 ng/mL
same,"UACR change from baseline, ANCOVA LS mean (SE)","Week 18, PPS",-12.95 g/kg
same,"UACR change from baseline, Mean (SD)","Week 18, PPS",-20540 mg/kg
same,"UACR change from baseline, Median","Week 18, PPS",-1.75 g/kg
same,"UACR, Mean (SD)","Week 18, PPS",37260 mg/kg
same,"UACR, Median","Week 18, PPS",11.60 g/kg
same,"UGCR change from baseline, ANCOVA LS mean (SE)","Week 18, PPS",42.72 mg/mg
same,"UGCR change from baseline, Mean (SD)","Week 18, PPS",41.06 mg/mg
same,"UGCR change from baseline, Median","Week 18, PPS",40.72 mg/mg
same,"UGCR, Mean (SD)","Week 18, PPS",43.00 mg/mg
same,"UGCR, Median","Week 18, PPS",40.86 mg/mg
same,"HDL-C change from baseline, ANCOVA LS mean (SE)",Week 18,3.08(0.67) mg/dL
same,"HDL-C change from baseline, Mean (SD)",Week 18,3.17(5.82) mg/dL
same,"HDL-C change from baseline, Median",Week 18,2.00 mg/dL
same,"HDL-C, Mean (SD)",Week 18,49.93(9.16) mg/dL
same,"HDL-C, Median",Week 18,49.00 mg/dL
same,"LDL-C change from baseline, ANCOVA LS mean (SE)",Week 18,2.58(1.89) mg/dL
same,"LDL-C change from baseline, Mean (SD)",Week 18,3.27(20.01) mg/dL
same,"LDL-C change from baseline, Median",Week 18,3.00 mg/dL
same,"LDL-C, Mean (SD)",Week 18,79.71(26.69) mg/dL
same,"LDL-C, Median",Week 18,80.00 mg/dL
same,"Triglycerides change from baseline, ANCOVA LS mean (SE)",Week 18,1.88(6.04) mg/dL
same,"Triglycerides change from baseline, Mean (SD)",Week 18,−4.10(62.62) mg/dL
same,"Triglycerides change from baseline, Median",Week 18,1.00 mg/dL
same,"Triglycerides, Mean (SD)",Week 18,130.88(70.92) mg/dL
same,"Triglycerides, Median",Week 18,110.00 mg/dL
same,"Diastolic blood pressure change from baseline, ANCOVA LS mean (SE)",Week 18,−4.10 mmHg
same,"Diastolic blood pressure change from baseline, Mean (SD)",Week 18,−3.94 mmHg
same,"Diastolic blood pressure change from baseline, Median",Week 18,−2.50 mmHg
same,"Diastolic blood pressure, Mean (SD)",Week 18,72.08 mmHg
same,"Diastolic blood pressure, Median",Week 18,71.00 mmHg
same,"Systolic blood pressure change from baseline, ANCOVA LS mean (SE)",Week 18,−5.97(1.15) mmHg
same,"Systolic blood pressure change from baseline, Mean (SD)",Week 18,−5.43(12.97) mmHg
same,"Systolic blood pressure change from baseline, Median",Week 18,−5.00 mmHg
same,"Systolic blood pressure, Mean (SD)",Week 18,122.27(12.91) mmHg
same,"Systolic blood pressure, Median",Week 18,122.00 mmHg
same,"Adiponectin change from baseline, ANCOVA LS mean (SE)","Week 24, PPS",1.69 µg/mL
same,"Adiponectin change from baseline, Mean (SD)","Week 24, PPS",1.72 µg/mL
same,"Adiponectin change from baseline, Median","Week 24, PPS",1.06 ng/mL
same,"Adiponectin, Mean (SD)","Week 24, PPS",8.35 µg/mL
same,"Adiponectin, Median","Week 24, PPS",7.19 µg/mL
same,"HOMA-IR change from baseline, ANCOVA LS mean (SE)","Week 24, PPS",−1.31
same,"HOMA-IR change from baseline, Mean (SD)","Week 24, PPS",−1.47
same,"HOMA-IR change from baseline, Median","Week 24, PPS",−1.17
same,"HOMA-IR, Mean (SD)","Week 24, PPS",2.39
